Source: patent publication US12233063B2, “Compositions and methods for treating eye disorders” (THE REGENTS OF THE UNIVERSITY OF MICHIGAN, priority 2017, dated 2025)
Read-outs that look alike come from different tables or passages of the source.

Legend:
[1] = tested on: caspase 8; assay: Caspase 8 activity in experimental retinal detachment; format: in vivo, Brown-Norway rats; details: 3 days after retinal detachment, subretinal injection
Protocol: Experimental Model of Retinal Detachment. Detachments were created in Brown-Norway, adult rats as previously described (Wubben et al., supra; Besirli et al., 2010 supra; Zacks, D. N. et al. Invest. Ophthalmol. Vis. Sci. 44, 1262-1267 (2003); Zacks, D. N., et al. Invest. Ophthalmol. Vis. Sci. 45, 4563-4569 (2004); Besirli, C. G., et al. Invest. Ophthalmol. Vis. Sci. 52, 4193-4199 (2011)). Briefly, rodents were anesthetized with a mix of ketamine (100 mg/mL) and xylazine (20 mg/mL), and pupils were dilated with topical phenylephrine (2.5%) and tropicamide (1%). A 25-gauge microvitreoretinal blade (Walcott Rx Products, Ocean View, N.J.) was used to create a sclerotomy located 1-2 mm posterior to the limbus with care taken to avoid lens damage. […]
1 tablet of protease inhibitor (Complete Mini; Roche Diagnostics, Indianapolis, IN) and 1 tablet of phosphatase inhibitor (PhosSTOP; Roche Diagnostics, Indianapolis, IN) per 10 mL were added to the lysis buffer. The homogenates were centrifuged at 10,000 g for 10 minutes at 4° C., and total protein concentration of the supernatant was determined using a Micro BCA protein assay kit (ThermoScientific, Rockford, IL). Substrate was incubated with 50 μg of protein in a white-walled 96 well-plate at room temperature for 1 hour and luminescence was measured as above. […]

[2] = tested on: genes involved in glucose metabolism; assay: Quantitative PCR of glucose metabolism genes in treated rat retinas; format: in vivo; details: 2 μL of 7.5 mM intravitreal, 3 days, fold change cut-off of 2, vs untreated and DMSO
Protocol: Quantitative Real-Time PCR. Intravitreal injections of ML-265 or vehicle (DMSO) were performed in Brown-Norway, adult rats as described above. […] Left eyes were injected with ML-265 or DMSO. The right eye served as the control, with all steps of the procedure performed, except for introduction of the blunt cannula and injection of ML-265 or DMSO. Retinas were harvested 3 days post-injection.
Total RNA was purified from retinal tissues of rats using RNeasy Mini kit (Qiagen, Cat No./ID: 74104) and QIAshredder (Qiagen, Cat No./ID: 79654). cDNA was synthesized using RT^2 First Strand Kit (Cat. No./ID: 330401) according to the manufacturer's instructions. Quantitative PCR was performed in at least triplicate for the different experimental groups using the Rat Glucose Metabolism RT^2 Profiler™ PCR Array (Qiagen, Cat No./ID: PARN-006Z). This PCR array allows simultaneous profiling of 84 genes involved in glucose metabolism and includes housekeeping genes for normalization. Reactions were performed and monitored using a CFX96 real time PCR system (Bio-Rad Laboratories), 1 cycle at 95° C. for 10 min followed by 40 cycles at 95° C. for 15 sec, 60° C. for 1 min. Data analysis was performed using the RT^2 Profiler™ PCR Array Data Analysis Template from Qiagen. Those genes whose relative expression level was low or not detected in all experimental groups were excluded from analysis. […]

[3] = Ocular pharmacokinetics after single intravitreal injection, aqueous humor; format: in vivo, Dutch-belted rabbits; details: male, Dutch-belted, other: intravitreal, rabbit aqueous humor
Protocol: Pharmacokinetics. Pharmacokinetic studies were performed in Dutch-belted rabbits. As previously described, male rabbits were anesthetized with inhalant anesthesia (sevoflurane) prior to each aqueous humor collection or intravitreal injection. An external heat source was used to prevent hypothermia. […] A Flynn pediatric lid speculum was placed in the eye and betadine was applied to the injection site. The temporal sclera was marked with a caliper 2 mm from the limbus. […] Delivery of the compound into the eye was confirmed via clinical inspection (Smith, A. et al. J Ocul Pharmacol Ther 34, 477-485 (2018)). An aqueous humor sample (100 microliters) was collected from each eye prior to intravitreal injection to serve as a baseline control. A 30-gauge needle on a 1 ml syringe was used to enter the anterior chamber of the eye and aspirate the aqueous humor in a controlled fashion. […] Samples were analyzed by LC-MS/MS (liquid chromatography-mass spectrometry/mass spectrometry). […] Rabbits are the most commonly used animals in intravitreal pharmacokinetic studies with good correlation to the human eye (Del Amo, E. M. & Urtti, A. Exp. Eye Res. 137, 111-124 (2015)). As described above, two different concentrations were injected into the vitreous of rabbits, and the aqueous humor was sampled at various times thereafter. […]

[4] = molecular target: T1, pyruvate kinase (PK) in 661W cells (Mus musculus, UniProt P52480); assay: Pyruvate kinase activity in lysates of 661W cells treated for 2 hours; format: cell-based; details: for AC50: 2 hours incubation
T1 construct: endogenous in cells; host or cells: 661W photoreceptor cell line
T1 sequence (P52480 whole entry): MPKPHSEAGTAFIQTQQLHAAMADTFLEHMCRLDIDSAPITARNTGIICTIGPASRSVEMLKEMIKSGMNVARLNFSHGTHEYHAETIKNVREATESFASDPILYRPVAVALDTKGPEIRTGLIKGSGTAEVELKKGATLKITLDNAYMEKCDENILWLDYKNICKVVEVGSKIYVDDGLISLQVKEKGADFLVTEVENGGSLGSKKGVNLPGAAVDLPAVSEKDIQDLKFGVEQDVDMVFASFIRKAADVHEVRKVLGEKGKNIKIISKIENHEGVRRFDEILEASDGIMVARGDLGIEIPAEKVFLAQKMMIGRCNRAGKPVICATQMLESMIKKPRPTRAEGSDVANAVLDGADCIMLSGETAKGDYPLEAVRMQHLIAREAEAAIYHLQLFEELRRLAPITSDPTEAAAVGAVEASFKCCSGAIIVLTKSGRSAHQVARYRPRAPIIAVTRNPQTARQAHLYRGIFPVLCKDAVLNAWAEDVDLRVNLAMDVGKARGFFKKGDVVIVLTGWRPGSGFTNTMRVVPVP
Protocol: Cell Culture. The 661W photoreceptor cell line was generously provided by Dr. Muayyad al-Ubaidi (Department of Cell Biology, University of Oklahoma Health Sciences Center, Oklahoma City, OK, USA) (al-Ubaidi, M. R. et al. J. Cell Biol. 119, 1681-1687 (1992)). The 661W cell line was maintained in Dulbecco's modified Eagle's medium containing 10% fetal bovine serum, 300 mg/L glutamine, 32 mg/L putrescine, 40 μL/L of β-mercaptoethanol, and 40 μg/L of both hydrocortisone 21-hemisuccinate and progesterone. The media also contained penicillin (90 units/mL) and streptomycin (0.09 mg/mL). Cells were grown at 37° C. in a humidified atmosphere of 5% CO2 and 95% air.
Cell culture. For cell line experiments, media was replaced prior to the start of treatment with DMSO or ML-265. […] Cells were lysed and homogenized in RIPA Lysis and Extraction Buffer (Catalog number: 89900, Life Technologies Corporation, Grand Island, NY) with protease inhibitors (Complete-Mini, Roche Diagnostics, Indianapolis, IN) and clarified by centrifugation at 10,000 rpm for 10 minutes. Five microliters of the supernatant was used to assess pyruvate kinase activity, and the activity was normalized to total protein content as previously described (Walsh et al., supra).

[5] = tested on: 661W cells; assay: Cell viability of 661W cells (RealTime-Glo MT); format: cell-based; details: 48 hours; for cell viability above DMSO-treated cells in standard tissue culture conditions / less cell death as compared to vehicle: FasL
Protocol: Cell viability. Cell viability was measured using a luminescent assay kit not based on ATP (RealTime-Glo MT Cell Viability Assay, Promega, Madison, WI, Cat No. G9711). 661W cells were seeded in 96-well plates (Nunc, Rochester, NY) at 2,500 cells/well 24 hours prior to treatment. […] Cell viability was measured 48 hours after treatment according to the manufacturer's instructions. […] Viability was again assessed at 48 hours after addition of FasL and HA Luminescence was measured in a plate reader luminometer (BMG Labtech, Inc, Cary, NC).

[6] = molecular target: T2, human recombinant PKM2 (Homo sapiens, UniProt P14618); assay: Pyruvate kinase activity enzyme assay, recombinant enzyme (LDH-coupled); format: biochemical; details: read-out: max activation
T2 construct: purchased Sigma SAE0021
T2 sequence (P14618 whole entry): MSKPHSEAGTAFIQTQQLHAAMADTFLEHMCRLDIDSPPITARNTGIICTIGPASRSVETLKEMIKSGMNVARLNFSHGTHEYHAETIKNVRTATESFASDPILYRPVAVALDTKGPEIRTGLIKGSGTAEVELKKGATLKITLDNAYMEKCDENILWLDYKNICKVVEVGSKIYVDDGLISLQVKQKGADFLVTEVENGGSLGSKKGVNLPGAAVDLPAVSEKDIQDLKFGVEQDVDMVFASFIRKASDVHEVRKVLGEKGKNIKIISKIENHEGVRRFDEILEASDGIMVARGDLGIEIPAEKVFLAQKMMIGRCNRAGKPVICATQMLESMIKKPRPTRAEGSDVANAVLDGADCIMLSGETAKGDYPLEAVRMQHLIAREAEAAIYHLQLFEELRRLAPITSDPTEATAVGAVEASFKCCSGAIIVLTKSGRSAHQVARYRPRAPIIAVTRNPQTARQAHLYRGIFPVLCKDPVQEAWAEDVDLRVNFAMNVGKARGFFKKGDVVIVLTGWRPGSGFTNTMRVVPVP
Protocol: Pyruvate Kinase Activity Enzyme Assay. Recombinant Enzyme. A continuous, enzyme-coupled assay, which uses lactate dehydrogenase (LDH) and measures the depletion of NADH via absorbance at 340 nm was utilized to determine the pyruvate kinase activity. […] The decrease in absorbance at 340 nm was monitored using a Spectrostar Omega plate reader (BMG LABTECH Inc., Cary, NC, USA). Initial velocities were calculated with the MARS software. Data were normalized to DMSO (dimethyl sulfoxide)-treated PKM2 activity.

[7] = molecular target: T3, pyruvate kinase (PK) (Rattus norvegicus, UniProt P11980); assay: In vivo pyruvate kinase activation in rat retina after intravitreal injection; details: rats
T3 construct: from tissue; host or cells: retina of Brown-Norway adult rats
T3 sequence (P11980 1-531 isoform P11980-2): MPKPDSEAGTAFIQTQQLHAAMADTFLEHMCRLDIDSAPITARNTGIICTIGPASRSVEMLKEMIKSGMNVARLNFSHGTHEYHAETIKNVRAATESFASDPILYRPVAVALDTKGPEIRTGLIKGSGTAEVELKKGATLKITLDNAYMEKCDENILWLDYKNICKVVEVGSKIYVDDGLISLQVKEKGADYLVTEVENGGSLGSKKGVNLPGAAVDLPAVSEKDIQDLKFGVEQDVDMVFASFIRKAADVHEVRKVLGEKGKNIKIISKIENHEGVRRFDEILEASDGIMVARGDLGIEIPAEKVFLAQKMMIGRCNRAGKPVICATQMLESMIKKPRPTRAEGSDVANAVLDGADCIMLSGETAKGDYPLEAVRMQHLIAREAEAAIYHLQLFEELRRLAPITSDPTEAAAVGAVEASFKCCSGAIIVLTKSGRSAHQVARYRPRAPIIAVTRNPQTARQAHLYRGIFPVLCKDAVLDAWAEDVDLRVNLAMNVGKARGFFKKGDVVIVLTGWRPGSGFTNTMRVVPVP
Protocol: Animals. Intravitreal injections of ML-265 or vehicle (DMSO) were performed in Brown-Norway, adult rats. Rodents were anesthetized with a mix of ketamine (100 mg/mL) and xylazine (20 mg/mL), and pupils were dilated with topical phenylephrine (2.5%) and tropicamide (1%). A 25-gauge microvitreoretinal blade (Walcott Rx Products, Ocean View, N.J.) was used to create a sclerotomy located 1-2 mm posterior to the limbus with care taken to avoid lens damage. A blunt, 34-gauge cannula was introduced through the sclerotomy into the vitreous cavity. […] Four hours after intravitreal injection, retinas from experimental rat eyes were dissected from the RPE-choroid, homogenized, and lysed in RIPA Lysis and Extraction Buffer with protease inhibitors. The assay was carried out using 4 microliters of rat retinal lysate in an enzyme buffer mixture (50 mM Tris-HCl, pH 7.4, 100 mM KCl, 5 mM MgCl2, 1 mM ADP, 0.5 mM PEP, and 0.2 mM NADH) and 8 units of LDH similar to what has been previously described (Wubben et al., supra; Raj ala et al., supra). Pyruvate kinase activity was normalized to total protein in each retinal lysate.
The retinas of these animals were then harvested 15 days after injection and assayed for PK activity (FIG. 20).

[8] = tested on: caspase 8; assay: Caspase 8 activity assay in 661W cells; format: cell-based; details: 8 hours
Protocol: (§1) Caspase Activity Assay. Luminescent assay kits (Caspase-Glo 8 and 3/7 Assay Systems, Promega, Madison, WI, Cat Nos. G8200 and G8090, respectively) were utilized to measure caspase 8 and caspase 3/7 activity according to the manufacturer's instructions. The 661W cells were seeded in white-walled 96-well plates at 2,500 cells/well for 24 hours prior to treatment. […] Caspase activity was measured at 8 hours status post treatment by incubating the cells with substrate for 1 hour according to the manufacturer's instructions. Luminescence was measured in a plate reader luminometer (BMG Labtech, Inc, Cary, NC).

[9] = tested on: H1299 cell xenografts; details: cited from earlier work
[10] = tested on: caspase 3/7; assay: Caspase 3/7 activity assay in 661W cells; format: cell-based; details: 8 hours
Protocol: as §1

[11] = standard tissue culture conditions
[12] = 15 days after single intravitreal injection of 2 μL of 7.5 mM
[13] = 500 ng/mL FasL and 250 ng/mL HA

In the case of `Cn1c2cc([S+](C)[O-])sc2c2cnn(Cc3cccc(N)c3)c(=O)c21` (stereo not drawn) [ML-265], the “caspase 8 activity vs vehicle” value [1] is reported as “statistically significantly less”, the “normalized gene expression patterns, glucose metabolism genes” value [2] is reported as “very similar” and the half-life ([3]; 23 mM, 50 microliters per eye, highest concentration (1 mM final vitreous), read-out: t1/2 terminal phase (converted)) is reported as 177 h. The half-life ([3]; between 6 and 48 hours, 100 μM and 1 mM final vitreous concentration, read-out: t1/2 initial phase (converted)) was 7.8 h, the “increase in PK activity” value [4] was 236% and the AC50 [4] was “comparable to that with recombinant protein”. The AC50 ([4]; read-out: AC50) was 0.022 µM, the “cell viability above DMSO-treated cells in standard tissue culture conditions” value ([5]; 200 nM ML-265) was 2% and the “less cell death as compared to vehicle” value ([5]; 200 nM ML-265) was 109%. For the same molecule, the “cell viability above DMSO-treated cells in standard tissue culture conditions” value ([5]; 2 μM ML-265) was 6%, the “less cell death as compared to vehicle” value ([5]; 2 μM ML-265) was 123% and the cell viability [5, 11] was “no significant effect”. The Emax [6] was greater than 250%, the Emax ([7]; rat, intravitreal injection, saturating concentrations, read-out: maximum activation of PK) was no more than 170% and the “average in vivo PK activation” value [7, 12] was 43%. For the same molecule, the “median PK activation above DMSO treated retinas” value [7, 12] was 38%, the AC50 ([7]; intravitreal injection, retinas 4 hours after injection) was 0.059 µM and the “maximum activation of PK” value ([7]; intravitreal injection, saturating concentrations) was 170%. For the same molecule, the “caspase 8 activation” value [8, 13] was “significantly decreased”, the “caspase 8 activity” value [8, 11] was “no significant effect” and the “tumor size and occurrence” value ([9]; mice bearing H1299 cell xenografts) was “reduce tumor size and occurrence”. The toxicity ([9]; over 7 weeks of continuous drug exposure) was “No toxicity was observed”, the “caspase 3/7 activation” value [10, 13] was “significantly decreased” and the “caspase 3/7 activity” value [10, 11] was “no significant effect”.
